From patent US20160213569A1, “PHARMACEUTICAL COMPOSITIONS OF RANOLAZINE AND DRONEDARONE” (Gilead Sciences, Inc., priority 2013, published 2016)

Assay: Stability of phosphoric acid salt of dronedarone prepared without polymer
Type: physicochemical
Conditions: 45° C. and 75% relative humidity (RH)

## CCCCc1oc2ccc(NS(C)(=O)=O)cc2c1C(=O)c1ccc(OCCCN(CCCC)CCCC)cc1.O=P(O)(O)O [phosphoric acid salt of dronedarone]
  Stability: unstable
